The term Ki denotes a dissociation constant, usually derived from enzyme kinetics or from competition with a known ligand. A higher Ki goes with a looser hold on the target. By pKa is commonly meant the pH at which an ionisable group is half protonated. The low end stands for a group that gives up its proton readily, the high end for a group that holds its proton tightly.

Data set [1] deals with Chymotrypsinogen A (Bos taurus, UniProt P00766).
Description: Compound was tested for the inhibition of chymotrypsin
Data set [2] in a line: physchem.
Description: Dissociation constant of compound was determined
Data set [3] has as its target T1, Serine protease 1 (Bos taurus, UniProt P00760).
T1 sequence (P00760 whole entry): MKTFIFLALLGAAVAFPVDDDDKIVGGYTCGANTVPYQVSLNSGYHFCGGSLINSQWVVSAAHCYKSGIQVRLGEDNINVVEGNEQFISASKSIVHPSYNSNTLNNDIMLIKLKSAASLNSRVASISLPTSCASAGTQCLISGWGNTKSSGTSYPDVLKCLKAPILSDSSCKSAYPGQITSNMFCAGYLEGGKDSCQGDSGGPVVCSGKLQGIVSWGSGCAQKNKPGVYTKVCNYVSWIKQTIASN
Description: Compound was tested for the inhibition of trypsin

Regarding `CB(O)c1ccccc1` [PHENYL METHYL BORINIC ACID], the Ki in data set [1] is 0.03 mM. In data set [2], the pKa was 8.1.

On to `OB(O)c1ccccc1` [PHENYLBORONIC ACID], for which the pKa stood at 8.85. Besides, the Ki in data set [3] came to 10.2 mM.
